PubChem BioAssay (NCI)
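96-well plates; 48 h exposure; 5 concentrations. Endpoints by linear interpolation between flanking doses. Not reached: highest tested concentration assigned. TGI: concentration producing complete growth inhibition.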

Assays:
Assay in all cases: NCI-60 cell line screen, 48 h
786-0 renal = test system: 786-0 renal
SN12C renal = test system: SN12C renal
UACC-62 melanoma = test system: UACC-62 melanoma
CCRF-CEM leukemia = test system: CCRF-CEM leukemia
ACHN renal = test system: ACHN renal
PC-3 prostate = test system: PC-3 prostate
MALME-3M melanoma = test system: MALME-3M melanoma
KM12 colon = test system: KM12 colon
SK-MEL-2 melanoma = test system: SK-MEL-2 melanoma
SF-539 CNS = test system: SF-539 CNS
UACC-257 melanoma = test system: UACC-257 melanoma
LOX IMVI melanoma = test system: LOX IMVI melanoma
RXF 393 renal = test system: RXF 393 renal
HCT-15 colon = test system: HCT-15 colon
OVCAR-5 ovarian = test system: OVCAR-5 ovarian
BT-549 breast = test system: BT-549 breast
OVCAR-8 ovarian = test system: OVCAR-8 ovarian
T-47D breast = test system: T-47D breast
OVCAR-4 ovarian = test system: OVCAR-4 ovarian
OVCAR-3 ovarian = test system: OVCAR-3 ovarian
CAKI-1 renal = test system: CAKI-1 renal
HOP-62 NSCLC = test system: HOP-62 NSCLC
HL-60(TB) leukemia = test system: HL-60(TB) leukemia
SK-MEL-5 melanoma = test system: SK-MEL-5 melanoma
MCF7 breast = test system: MCF7 breast
HOP-92 NSCLC = test system: HOP-92 NSCLC
NCI/ADR-RES ovarian = test system: NCI/ADR-RES ovarian
MDA-N = test system: MDA-N
UO-31 renal = test system: UO-31 renal
M14 melanoma = test system: M14 melanoma
A498 renal = test system: A498 renal
HT29 colon = test system: HT29 colon
SF-268 CNS = test system: SF-268 CNS
RPMI-8226 leukemia = test system: RPMI-8226 leukemia
HS 578T breast = test system: HS 578T breast
SNB-75 CNS = test system: SNB-75 CNS
TK-10 renal = test system: TK-10 renal
MDA-MB-435 = test system: MDA-MB-435
SK-OV-3 ovarian = test system: SK-OV-3 ovarian
DU-145 prostate = test system: DU-145 prostate
NCI-H226 lung = test system: NCI-H226 lung
SW-620 colon = test system: SW-620 colon
NCI-H23 lung = test system: NCI-H23 lung
SR leukemia = test system: SR leukemia
MDA-MB-231 breast = test system: MDA-MB-231 breast
EKVX NSCLC = test system: EKVX NSCLC
COLO 205 colon = test system: COLO 205 colon
A549 NSCLC = test system: A549 NSCLC
NCI-H460 lung = test system: NCI-H460 lung
HCT-116 colon = test system: HCT-116 colon
K-562 leukemia = test system: K-562 leukemia
SF-295 CNS = test system: SF-295 CNS
NCI-H522 lung = test system: NCI-H522 lung
MOLT-4 leukemia = test system: MOLT-4 leukemia
SNB-19 CNS = test system: SNB-19 CNS
U251 CNS = test system: U251 CNS
IGROV1 ovarian = test system: IGROV1 ovarian
SK-MEL-28 melanoma = test system: SK-MEL-28 melanoma
HCC-2998 colon = test system: HCC-2998 colon

`Cc1cccc2c(N)c3cccc(C(=O)NCCCNCCN)c3nc12` showed a TGI (786-0 renal) of 11.4 µM, a TGI (SN12C renal) of 2.25 µM and a TGI (UACC-62 melanoma) of 19 µM. The TGI (CCRF-CEM leukemia) was over 70.4 µM, the TGI (ACHN renal) was 32.8 µM and the TGI (PC-3 prostate) was 35.3 µM. It also gave a TGI (MALME-3M melanoma) of 19.9 µM, a TGI (KM12 colon) of 19.5 µM and a TGI (SK-MEL-2 melanoma) of 34 µM. The TGI (SF-539 CNS) was 9.93 µM, the TGI (UACC-257 melanoma) was 31.1 µM and the TGI (LOX IMVI melanoma) was 25.2 µM. It also gave a TGI (RXF 393 renal) of 18.6 µM, a TGI (HCT-15 colon) of over 100 µM and a TGI (OVCAR-5 ovarian) of 38.4 µM. It also gave a TGI (BT-549 breast) of 28 µM, a TGI (OVCAR-8 ovarian) of 23.6 µM and a TGI (T-47D breast) of 24.8 µM. For the same molecule, the TGI (OVCAR-4 ovarian) was 10.5 µM, the TGI (OVCAR-3 ovarian) was 63.2 µM and the TGI (CAKI-1 renal) was 26.3 µM. For the same molecule, the TGI (HOP-62 NSCLC) was 18.3 µM, the TGI (HL-60(TB) leukemia) was over 64.3 µM and the TGI (SK-MEL-5 melanoma) was 22.8 µM. For the same molecule, the TGI (MCF7 breast) was 11 µM, the TGI (HOP-92 NSCLC) was 42.7 µM and the TGI (NCI/ADR-RES ovarian) was 77.9 µM. For the same molecule, the TGI (MDA-N) was 27 µM, the TGI (UO-31 renal) was 46.8 µM and the TGI (M14 melanoma) was 28.4 µM. For the same molecule, the TGI (A498 renal) was 30.1 µM, the TGI (HT29 colon) was 16.3 µM and the TGI (SF-268 CNS) was 3.19 µM. It also gave a TGI (RPMI-8226 leukemia) of 37.3 µM, a TGI (HS 578T breast) of 3.71 µM and a TGI (SNB-75 CNS) of 8.1 µM. It also gave a TGI (TK-10 renal) of 51.7 µM, a TGI (MDA-MB-435) of 29.1 µM and a TGI (SK-OV-3 ovarian) of over 62.8 µM. It also gave a TGI (DU-145 prostate) of 17.2 µM, a TGI (NCI-H226 lung) of 9.15 µM and a TGI (SW-620 colon) of 33.3 µM. It also gave a TGI (NCI-H23 lung) of 10.9 µM, a TGI (SR leukemia) of over 82.9 µM and a TGI (MDA-MB-231 breast) of 12.9 µM. The TGI (EKVX NSCLC) was 33.2 µM, the TGI (COLO 205 colon) was 20.1 µM and the TGI (A549 NSCLC) was 15 µM. For the same molecule, the TGI (NCI-H460 lung) was 11.6 µM, the TGI (HCT-116 colon) was 25.9 µM and the TGI (K-562 leukemia) was over 100 µM. It also gave a TGI (SF-295 CNS) of 20.9 µM, a TGI (NCI-H522 lung) of 0.0786 µM and a TGI (MOLT-4 leukemia) of 17.4 µM. It also gave a TGI (SNB-19 CNS) of 15 µM, a TGI (U251 CNS) of 9.31 µM and a TGI (IGROV1 ovarian) of 28.9 µM. For the same molecule, the TGI (SK-MEL-28 melanoma) was 29.4 µM and the TGI (HCC-2998 colon) was 19.6 µM.
